Assay results as given in patent US20230111310A1, “CARBOXYLIC ACID DERIVATIVE-SUBSTITUTED IMINO ARYL COMPOUND, PREPARATION METHOD THEREFOR, HERBICIDAL COMPOSITION AND USE THEREOF” (Qingdao Kingagroot Chemical Compound Co., Ltd., priority 2020, published 2023).

Columns and labels:
Assay in all cases: Weeding effect in post-emergence stage
Format in all cases: in vivo
[1] = system: Alopecurus japonicus; conditions: for Weeding effect in post-emergence stage, Alopecurus japonicus (level): fresh weight control rate level; for Weeding effect in post-emergence stage, Alopecurus japonicus: level of fresh weight growth control rate
How it was run: (§1)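 Weeds were treated post-emergence at 2-3 leaves with compound doses from 7.5 up to 500 g/ha, formulated in acetone–Tween 80 with methyl oleate synergist. Efficacy was assessed as growth control after 3 weeks.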

[2] = system: Setaria viridis; conditions: for Weeding effect in post-emergence stage, Setaria viridis (level): fresh weight control rate level; for Weeding effect in post-emergence stage, Setaria viridis: level of fresh weight growth control rate
How it was run: as §1

[3] = system: Eleusine indica; conditions: for Weeding effect in post-emergence stage, Eleusine indica (level): fresh weight control rate level; for Weeding effect in post-emergence stage, Eleusine indica: level of fresh weight growth control rate
How it was run: as §1

[4] = system: Abutilon theophrasti; conditions: for Weeding effect in post-emergence stage, Abutilon theophrasti (level): fresh weight control rate level; for Weeding effect in post-emergence stage, Abutilon theophrasti: level of fresh weight growth control rate
How it was run: as §1

[5] = system: Digitaria sanguinalis; conditions: for Weeding effect in post-emergence stage, Digitaria sanguinalis (level): fresh weight control rate level; for Weeding effect in post-emergence stage, Digitaria sanguinalis: level of fresh weight growth control rate
How it was run: as §1

[6] = system: Echinochloa crusgalli; conditions: for Weeding effect in post-emergence stage, Echinochloa crusgalli (level): fresh weight control rate level; for Weeding effect in post-emergence stage, Echinochloa crusgalli: level of fresh weight growth control rate
How it was run: as §1

Structure (SMILES): C[C@@H](O/N=C/c1cc(-n2c(=O)cc(C(F)(F)F)n(C)c2=O)c(F)cc1Cl)C(=O)OCCCC#N [446(R)]
- Weeding effect in post-emergence stage, Alopecurus japonicus (level) ([1]; Dose 15 g/ha): 5 (Level 5: growth control rate is above 85%)
- Weeding effect in post-emergence stage, Setaria viridis (level) ([2]; Dose 15 g/ha): 5 (Level 5: growth control rate is above 85%)
- Weeding effect in post-emergence stage, Eleusine indica (level) ([3]; Dose 15 g/ha): 5 (Level 5: growth control rate is above 85%)
- Weeding effect in post-emergence stage, Abutilon theophrasti (level) ([4]; Dose 15 g/ha): 5 (Level 5: growth control rate is above 85%)
- Weeding effect in post-emergence stage, Digitaria sanguinalis (level) ([5]; Dose 15 g/ha): 5 (Level 5: growth control rate is above 85%)
- Weeding effect in post-emergence stage, Echinochloa crusgalli (level) ([6]; Dose 15 g/ha): 5 (Level 5: growth control rate is above 85%)

Structure (SMILES): C[C@@H](O/N=C/c1cc(-n2c(=O)n(C)c(=S)n(C)c2=O)c(F)cc1Cl)C(=O)OCCCF [11(R)]
- Weeding effect in post-emergence stage, Alopecurus japonicus ([1]; Dose 15 g/ha): 5 (Level 5: growth control rate is above 85%)
- Weeding effect in post-emergence stage, Setaria viridis ([2]; Dose 15 g/ha): 5 (Level 5: growth control rate is above 85%)
- Weeding effect in post-emergence stage, Eleusine indica ([3]; Dose 15 g/ha): 5 (Level 5: growth control rate is above 85%)
- Weeding effect in post-emergence stage, Abutilon theophrasti ([4]; Dose 15 g/ha): 5 (Level 5: growth control rate is above 85%)
- Weeding effect in post-emergence stage, Digitaria sanguinalis ([5]; Dose 15 g/ha): 5 (Level 5: growth control rate is above 85%)
- Weeding effect in post-emergence stage, Echinochloa crusgalli ([6]; Dose 15 g/ha): 5 (Level 5: growth control rate is above 85%)

Structure (SMILES): COC(=O)[C@@H](C)O/N=C/c1cc(-n2c(=O)cc(C(F)(F)F)n(C)c2=O)c(F)cc1C#N [344(R)]
- Weeding effect in post-emergence stage, Alopecurus japonicus ([1]; Dose 15 g/ha): 5 (Level 5: growth control rate is above 85%)
- Weeding effect in post-emergence stage, Setaria viridis ([2]; Dose 15 g/ha): 5 (Level 5: growth control rate is above 85%)
- Weeding effect in post-emergence stage, Eleusine indica ([3]; Dose 15 g/ha): 5 (Level 5: growth control rate is above 85%)
- Weeding effect in post-emergence stage, Abutilon theophrasti ([4]; Dose 15 g/ha): 5 (Level 5: growth control rate is above 85%)
- Weeding effect in post-emergence stage, Digitaria sanguinalis ([5]; Dose 15 g/ha): 5 (Level 5: growth control rate is above 85%)
- Weeding effect in post-emergence stage, Echinochloa crusgalli ([6]; Dose 15 g/ha): 5 (Level 5: growth control rate is above 85%)

Structure (SMILES): CC(O/N=C/c1cc(-n2c(=O)cc(C(F)(F)F)n(C)c2=O)c(F)cc1Cl)C(=O)O (racemic) [Compound 193]
- Weeding effect in post-emergence stage, Alopecurus japonicus ([1]; Dose 15 g/ha): 5 (Level 5: growth control rate is above 85%)
- Weeding effect in post-emergence stage, Setaria viridis ([2]; Dose 15 g/ha): 5 (Level 5: growth control rate is above 85%)
- Weeding effect in post-emergence stage, Eleusine indica ([3]; Dose 15 g/ha): 5 (Level 5: growth control rate is above 85%)
- Weeding effect in post-emergence stage, Abutilon theophrasti ([4]; Dose 15 g/ha): 5 (Level 5: growth control rate is above 85%)
- Weeding effect in post-emergence stage, Digitaria sanguinalis ([5]; Dose 15 g/ha): 5 (Level 5: growth control rate is above 85%)
- Weeding effect in post-emergence stage, Echinochloa crusgalli ([6]; Dose 15 g/ha): 5 (Level 5: growth control rate is above 85%)

Structure (SMILES): COC(=O)[C@@H](C)O/N=C/c1cc(-n2c(=S)cc(C(F)(F)F)n(C)c2=S)c(F)cc1C#N [393(R)]
- Weeding effect in post-emergence stage, Alopecurus japonicus (level) ([1]; Dose 60 g/ha): 5 (Level 5: growth control rate is above 85%)
- Weeding effect in post-emergence stage, Setaria viridis (level) ([2]; Dose 60 g/ha): 5 (Level 5: growth control rate is above 85%)
- Weeding effect in post-emergence stage, Eleusine indica (level) ([3]; Dose 60 g/ha): 5 (Level 5: growth control rate is above 85%)
- Weeding effect in post-emergence stage, Abutilon theophrasti (level) ([4]; Dose 60 g/ha): 5 (Level 5: growth control rate is above 85%)
- Weeding effect in post-emergence stage, Digitaria sanguinalis (level) ([5]; Dose 60 g/ha): 5 (Level 5: growth control rate is above 85%)
- Weeding effect in post-emergence stage, Echinochloa crusgalli (level) ([6]; Dose 60 g/ha): 5 (Level 5: growth control rate is above 85%)

Structure (SMILES): C[C@@H](O/N=C/c1cc(-n2c(=O)cc(C(F)(F)F)n(C)c2=O)c(F)cc1Cl)C(=O)OCc1cccc(F)c1 [285(R)]
- Weeding effect in post-emergence stage, Alopecurus japonicus ([1]; Dose 30 g/ha): 5 (Level 5: growth control rate is above 85%)
- Weeding effect in post-emergence stage, Setaria viridis ([2]; Dose 30 g/ha): 5 (Level 5: growth control rate is above 85%)
- Weeding effect in post-emergence stage, Eleusine indica ([3]; Dose 30 g/ha): 5 (Level 5: growth control rate is above 85%)
- Weeding effect in post-emergence stage, Abutilon theophrasti ([4]; Dose 30 g/ha): 5 (Level 5: growth control rate is above 85%)
- Weeding effect in post-emergence stage, Digitaria sanguinalis ([5]; Dose 30 g/ha): 5 (Level 5: growth control rate is above 85%)
- Weeding effect in post-emergence stage, Echinochloa crusgalli ([6]; Dose 30 g/ha): 5 (Level 5: growth control rate is above 85%)

Structure (SMILES): C/C(=N\OC(=O)[C@@H](C)O/N=C/c1cc(-n2c(=O)cc(C(F)(F)F)n(C)c2=O)c(F)cc1Cl)C1CC1 [450(R)]
- Weeding effect in post-emergence stage, Alopecurus japonicus (level) ([1]; Dose 15 g/ha): 5 (Level 5: growth control rate is above 85%)
- Weeding effect in post-emergence stage, Setaria viridis (level) ([2]; Dose 15 g/ha): 5 (Level 5: growth control rate is above 85%)
- Weeding effect in post-emergence stage, Eleusine indica (level) ([3]; Dose 15 g/ha): 5 (Level 5: growth control rate is above 85%)
- Weeding effect in post-emergence stage, Abutilon theophrasti (level) ([4]; Dose 15 g/ha): 5 (Level 5: growth control rate is above 85%)
- Weeding effect in post-emergence stage, Digitaria sanguinalis (level) ([5]; Dose 15 g/ha): 5 (Level 5: growth control rate is above 85%)
- Weeding effect in post-emergence stage, Echinochloa crusgalli (level) ([6]; Dose 15 g/ha): 5 (Level 5: growth control rate is above 85%)

Structure (SMILES): CCOC(=O)C(C)O/N=C/c1cc(-n2c(=O)n(C)c(=S)n(C)c2=O)c(F)cc1Cl (racemic) [Compound 2]
- Weeding effect in post-emergence stage, Alopecurus japonicus ([1]; Dose 15 g/ha): 5 (Level 5: growth control rate is above 85%)
- Weeding effect in post-emergence stage, Setaria viridis ([2]; Dose 15 g/ha): 5 (Level 5: growth control rate is above 85%)
- Weeding effect in post-emergence stage, Eleusine indica ([3]; Dose 15 g/ha): 5 (Level 5: growth control rate is above 85%)
- Weeding effect in post-emergence stage, Abutilon theophrasti ([4]; Dose 15 g/ha): 5 (Level 5: growth control rate is above 85%)
- Weeding effect in post-emergence stage, Digitaria sanguinalis ([5]; Dose 15 g/ha): 5 (Level 5: growth control rate is above 85%)
- Weeding effect in post-emergence stage, Echinochloa crusgalli ([6]; Dose 15 g/ha): 5 (Level 5: growth control rate is above 85%)

Structure (SMILES): CCCCCOC(=O)C(C)O/N=C/c1cc(-n2c(=O)cc(C(F)(F)F)n(C)c2=O)c(F)cc1Cl (racemic) [Compound 203]
- Weeding effect in post-emergence stage, Alopecurus japonicus ([1]; Dose 15 g/ha): 5 (Level 5: growth control rate is above 85%)
- Weeding effect in post-emergence stage, Setaria viridis ([2]; Dose 15 g/ha): 5 (Level 5: growth control rate is above 85%)
- Weeding effect in post-emergence stage, Eleusine indica ([3]; Dose 15 g/ha): 5 (Level 5: growth control rate is above 85%)
- Weeding effect in post-emergence stage, Abutilon theophrasti ([4]; Dose 15 g/ha): 5 (Level 5: growth control rate is above 85%)
- Weeding effect in post-emergence stage, Digitaria sanguinalis ([5]; Dose 15 g/ha): 5 (Level 5: growth control rate is above 85%)
- Weeding effect in post-emergence stage, Echinochloa crusgalli ([6]; Dose 15 g/ha): 5 (Level 5: growth control rate is above 85%)

Structure (SMILES): C[C@@H](O/N=C/c1cc(-n2c(=O)cc(C(F)(F)F)n(C)c2=O)c(F)cc1Cl)C(=O)OCC1(C#N)CC1 [447(R)]
- Weeding effect in post-emergence stage, Alopecurus japonicus (level) ([1]; Dose 15 g/ha): 5 (Level 5: growth control rate is above 85%)
- Weeding effect in post-emergence stage, Setaria viridis (level) ([2]; Dose 15 g/ha): 5 (Level 5: growth control rate is above 85%)
- Weeding effect in post-emergence stage, Eleusine indica (level) ([3]; Dose 15 g/ha): 5 (Level 5: growth control rate is above 85%)
- Weeding effect in post-emergence stage, Abutilon theophrasti (level) ([4]; Dose 15 g/ha): 5 (Level 5: growth control rate is above 85%)
- Weeding effect in post-emergence stage, Digitaria sanguinalis (level) ([5]; Dose 15 g/ha): 5 (Level 5: growth control rate is above 85%)
- Weeding effect in post-emergence stage, Echinochloa crusgalli (level) ([6]; Dose 15 g/ha): 5 (Level 5: growth control rate is above 85%)

Structure (SMILES): CCO/C(C)=N/OC(=O)[C@@H](C)O/N=C/c1cc(-n2c(=O)cc(C(F)(F)F)n(C)c2=O)c(F)cc1Cl [252(R)]
- Weeding effect in post-emergence stage, Alopecurus japonicus ([1]; Dose 15 g/ha): 5 (Level 5: growth control rate is above 85%)
- Weeding effect in post-emergence stage, Setaria viridis ([2]; Dose 15 g/ha): 5 (Level 5: growth control rate is above 85%)
- Weeding effect in post-emergence stage, Eleusine indica ([3]; Dose 15 g/ha): 5 (Level 5: growth control rate is above 85%)
- Weeding effect in post-emergence stage, Abutilon theophrasti ([4]; Dose 15 g/ha): 5 (Level 5: growth control rate is above 85%)
- Weeding effect in post-emergence stage, Digitaria sanguinalis ([5]; Dose 15 g/ha): 5 (Level 5: growth control rate is above 85%)
- Weeding effect in post-emergence stage, Echinochloa crusgalli ([6]; Dose 15 g/ha): 5 (Level 5: growth control rate is above 85%)

Structure (SMILES): CC[C@@H](O/N=C/c1cc(-n2c(=O)n(C)c(=S)n(C)c2=O)c(F)cc1Cl)C(=O)OC [72(R)]
- Weeding effect in post-emergence stage, Alopecurus japonicus ([1]; Dose 15 g/ha): 5 (Level 5: growth control rate is above 85%)
- Weeding effect in post-emergence stage, Setaria viridis ([2]; Dose 15 g/ha): 5 (Level 5: growth control rate is above 85%)
- Weeding effect in post-emergence stage, Eleusine indica ([3]; Dose 15 g/ha): 5 (Level 5: growth control rate is above 85%)
- Weeding effect in post-emergence stage, Abutilon theophrasti ([4]; Dose 15 g/ha): 5 (Level 5: growth control rate is above 85%)
- Weeding effect in post-emergence stage, Digitaria sanguinalis ([5]; Dose 15 g/ha): 5 (Level 5: growth control rate is above 85%)
- Weeding effect in post-emergence stage, Echinochloa crusgalli ([6]; Dose 15 g/ha): 5 (Level 5: growth control rate is above 85%)

Structure (SMILES): CCOC(=O)C(O/N=C/c1cc(-n2c(=O)n(C)c(=S)n(C)c2=O)c(F)cc1Cl)C1CC1 (stereo not drawn) [Compound 76]
- Weeding effect in post-emergence stage, Alopecurus japonicus ([1]; Dose 15 g/ha): 5 (Level 5: growth control rate is above 85%)
- Weeding effect in post-emergence stage, Setaria viridis ([2]; Dose 15 g/ha): 5 (Level 5: growth control rate is above 85%)
- Weeding effect in post-emergence stage, Eleusine indica ([3]; Dose 15 g/ha): 5 (Level 5: growth control rate is above 85%)
- Weeding effect in post-emergence stage, Abutilon theophrasti ([4]; Dose 15 g/ha): 5 (Level 5: growth control rate is above 85%)
- Weeding effect in post-emergence stage, Digitaria sanguinalis ([5]; Dose 15 g/ha): 5 (Level 5: growth control rate is above 85%)
- Weeding effect in post-emergence stage, Echinochloa crusgalli ([6]; Dose 15 g/ha): 5 (Level 5: growth control rate is above 85%)
